# Tested on: DENV-2 human strain V594
# Assay: DENV-2 infection in Ifnar1-/- mice, viral titers by flow cytometry
# Assay type: in vivo
# Settings: 20 mg/kg i.p. 12 h before and 6, 24, 48 h after infection; DENV-2 V594 2×10^6 PFU; 3 dpi; vs gossypol and DMSO
# Text: FIG. 11A is a schematic diagram of experimental procedures. […] FIG. 11B depicts representative images of DENV titers in brain, kidney, heart, and sera analyzed by flow cytometry at 3 dpi. C6/36 cells with or without DENV-2 infection were used as positive and negative controls, respectively. The percentage of infected cells to the total number of cells is shown in each figure. FIG. 11C depicts the detection of DENV titers in challenged mouse tissues and sera at 3 dpi. […] The data are presented as mean±s.e.m of duplicate wells (n=2). The experiments were repeated twice with similar results.
# ST087010 was evaluated for protection against DENV-2 infection in susceptible Ifnar1^−/− mice. […] Three days after infection, sera and tissues, including brain, kidney, and heart, were collected, and detected for DENV infection using a flow cytometry assay (as described below). […] DENV titers in tissues or sera were determined from ˜20 mg of tissue, or 25 μl of sera, and used for subsequent flow cytometry analysis.
# A flow cytometry assay was carried out to analyze DENV-2 titers in the infected mouse tissue supernatants and sera collected above. […] Viral titers (infectious units/ml or infectious units/g) were calculated using the formula: ((% of infected cells)×(total number of cells)×(dilution factor))/(amount of inoculum added to cells). […]
compound,measurement,value
Cc1cc2c(C(C)C)c(O)c(O)c(/C=N/n3c(=O)[nH][nH]c3=O)c2c(O)c1-c1c(C)cc2c(C(C)C)c(O)c(O)c(/C=N/n3c(=O)[nH][nH]c3=O)c2c1O [ST087010],"DENV-2 viral titer (number of infected cells) in brain, kidney, heart and sera",significantly reduced number of infected cells
